# Data: publication PMC4351204, “Amyloid Precursor Protein Mediated Changes in Intestinal Epithelial Phenotype In Vitro” (PLoS ONE, 2015)
# Columns and labels:
# Caco-2 cells [1] = assay: Cytokine ELISAs (IL-8, MCP-1, MDC, IL-6, TNFα) of media from stimulated Caco-2 cells; assay type: cell-based, human; conditions: ELISA of media, normalized to protein, 6 samples
# Caco-2 cells [2] = assay: Cholesterol Uptake Cell-Based Assay (NBD Cholesterol); set-up: species or system human; conditions: 40 min; for Cholesterol uptake: 8 samples
# Method: Cholesterol was measured following the protocol provided in the Cholesterol Uptake Cell-Based Assay Kit from Cayman Chemical Company (Ann Arbor, Michigan USA). […] At the end of treatment, the plates were aspirated and cell-based assay buffer was added to each well and NBD Cholesterol uptake was quantified using a fluorescent plate reader (480 nm excitation and 520 nm emission).
# Fig 4 Aβ and 22C11 agonist decreased cholesterol uptake whereas the sAPP-derived peptide and SM-ϕ stimulated increased cholesterol uptake by Caco-2 cells. […] Representative data from 3 independent experiments are shown.
# Caco-2 cells [3] = assay: Western blotting of protein levels in stimulated Caco-2 cells; assay type: cell-based, human; conditions: western blot, 3 samples
# Method: Following stimulation, cells were lysed using ice cold radioimmunoprecipitation assay (RIPA) buffer (20mM Tris, pH 7.4, 150mM NaCl, 1mM Na3VO4, 10mM NaF, 1mM EDTA, 1mM EGTA, 0.2mM phenylmethylsulfonyl fluoride, 1% Triton, 0.1% SDS, and 0.5% deoxycholate) with protease inhibitors (AEBSF 1mM, Aprotinin 0.8μM, Leupeptin 21μM, Bestatin 36μM, Pepstatin A 15μM, E-64 14μM) and 50U/mL DNAse1(Amresco Inc, Solon, OH, USA). To remove insoluble material cell lysates were sonicated and centrifuged (14,000 rpm, 4°C, 10 min). The Bradford method was used to quantify protein concentrations. Proteins were resolved by 7 or 10% sodium dodecyl sulfate-polyacrylamide gel electrophoresis (SDS-PAGE) and transferred to polyvinylidene difluoride membranes (PVDF) for western blotting using anti-APP (Y188), CD36, occludin, LFABP, FATP4, pSrc, cSrc, and GAPDH (loading control) antibodies. Antibody binding was detected with enhanced chemiluminescence (GE Healthcare, Piscataway, NJ). In some instances, blots were stripped in […], 10 min, 25°C, for reprobing. Western blots were quantified using Adobe Photoshop software. Optical densities of bands were normalized against their respective loading controls and averaged (+/-SD).
# Fig 5 Aβ, APP, and CD36 stimulations selectively altered protein levels in Caco-2 cells.
# HepG2 hepatocyte line = test system: HepG2 hepatocyte line; set-up: method as in PMID 8898096; conditions: Aβ 1–40 treatment of human HepG2 hepatocyte line; cited from earlier work
# Caco-2 cells [4] = assay: Aβ uptake assay with FITC labeled Aβ 1–40; assay type: in vitro ADME, human
# Method: FITC labeled Aβ 1–40 was prepared according to the manufacturer’s protocol (rPeptide, Bogart, GA, USA). 500nM of the peptide was added to confluent cells in serum free DMEM/F12 for 4 hours in the absence or presence of 10ng/mL LPS. The media was then removed and extracellular peptide signal was quenched by rinsing cells with 0.25% trypan blue dissolved in PBS. The trypan blue incubation served to quench FITC-Aβ signal from any peptide that was associated with the extracellular plasma membrane surface or with the tissue culture plastic of the wells. Intracellular Aβ signal was then quantified using a fluorescent plate reader (480 nm excitation and 520 nm emission).
# (§1) Fig 2 Caco-2 cells secreted and took up Aβ. […] The cells were rinsed with trypan blue to quench extracellular signal from FITC-Aβ on the cell surface or surface of the tissue culture dish and intracellular Aβ fluorescence was measured with a fluorescent plate reader (480 nm excitation and 520 nm emission) (B).
# [5] = set-up: method as in PMID 12897403; conditions: in vivo, iv; cited from earlier work
# Caco-2 cells [6] = assay: Aβ 1–40 and Aβ 1–42 ELISA of media from stimulated Caco-2 cells (Aβ secretion); assay type: cell-based, human; conditions: overnight stimulation in serum free DMEM/F12; 10ng/mL LPS or 1μg/mL 22C11; 3 experiments in a replicate of 8
# Method: Caco-2 cells were purchased from ATCC (Manassas, VA, USA). These are an epithelial-like cell line derived from a colorectal adenocarcinoma from a person. Caco-2 cells were maintained in DMEM/F12 (Gibco, Life Technologies, Grand Island, NY, USA) supplemented with 10% heat inactivated fetal bovine serum (FBS), 5% donor horse serum (Serum Source International, Charlotte, NC, USA) and antibiotics (0.05mg penicillin/0.05mg streptomycin/0.01mg neomycin/mL) (Sigma-Aldrich, St. Louis, MO, USA). Caco-2 cells were plated and allowed to grow to confluency before removing supplemented media and replacing with serum free DMEM/F12 with or without treatments. Following stimulation, Caco-2 cells were used for ELISA, Aβ uptake, cholesterol assays, immunoprecipitation, and western blot analysis.
# The cells were lysed using ice cold RIPA buffer with protease inhibitors and 50U/mL DNAse1. […] The Bradford method was used to quantify protein concentrations for normalization of Aβ in the media and lysates were used for western blotting.
# as §1
substance,measurement,setting,value
Aβ 1–40: amyloid β 1–40 peptide purchased from rPeptide,IL-6 cytokine secretion,"Caco-2 cells [1]; 1μM Aβ 1–40, 24h",increased
same,Cholesterol uptake,"Caco-2 cells [2]; 100nM, 1μM and 5μM Aβ 1–40 (all three concentrations), 20μg/ml NBD Cholesterol",decreased
same,"Cholesterol uptake, concentration comparison",Caco-2 cells [2]; 1μM Aβ 1–40 compared with 100nM and 5μM,most dramatic effect
same,protein levels of other proteins examined (besides occludin),"Caco-2 cells [3]; 1μM Aβ 1–40 overnight, compared to control untreated cells",no effect
same,occludin protein levels,"Caco-2 cells [3]; overnight stimulation, 1μg/mL antibody or 1μM Aβ 1–40",decreased
same,"steady state levels of intracellular cholesterol, cholesterol esters, phospholipids, and triacylglycerol",HepG2 hepatocyte line,attenuate
fluorescently labeled Aβ 1–40: FITC labeled Aβ 1–40 prepared according to the manufacturer's protocol (rPeptide),Uptake of fluorescently labeled Aβ 1–40 into cells (intracellular fluorescence),"Caco-2 cells [4]; 500nM FITC Aβ 1–40, 4 hr, confluent Caco-2, serum free DMEM/F12, extracellular signal quenched with 0.25% trypan blue, fluorescent plate reader 480/520 nm, 3 experiments in a replicate of 8",could take up Aβ peptide
"radiolabeled Aβ 1–40: radiolabeled Aβ 1–40 associated with chylomicron-like particles, literature study",transport into organs,[5],can be transported into diverse organs including adipose tissue and brain
lipopolysaccharide [LPS],Aβ secretion (Aβ 1–40 and Aβ 1–42 ELISA),Caco-2 cells [6],higher concentrations of Aβ 1–40 compared to Aβ 1–42 released
same,Effect on uptake of FITC Aβ 1–40 by Caco-2 cells,"Caco-2 cells [4]; 10ng/mL LPS present with 500nM FITC Aβ 1–40, 4 hr",not affected
same,IL-8 cytokine secretion,"Caco-2 cells [1]; 10ng/mL LPS, 24h",increased
same,TNFα cytokine secretion,"Caco-2 cells [1]; 10ng/mL LPS, 24h",increased
same,Cholesterol uptake,"Caco-2 cells [2]; 10ng/mL LPS, 20μg/ml NBD Cholesterol in glucose free HBSS",increased
